Reference: the NIST ThermoML archive (doi:10.1016/j.jct.2016.02.025)
Numbers after ± are expanded uncertainties.

Key:
[1] = 100 kPa; for speed of sound: Frequency=3 MHz, Sing-around technique in a fixed-path interferometer; for mass density: Vibrating tube method
[2] = refractive index (Na D-line) (dimensionless); settings: 100 kPa, Standard Abbe refractometry

CCCCn1cc[n+](C)c1.[Br-] [1-butyl-3-methylimidazolium bromide]
Metastable liquid
Settings	mass density, [1] [kg/m3]	refractive index, [2]	speed of sound, [1] [m/s]
293.15 K	1293.44 ± 3.2	1.54699 ± 0.0012	1675.2 ± 3.5
298.15 K	1290.02 ± 3.2	1.54575 ± 0.0012	1665.7 ± 3.5
303.15 K	1286.59 ± 3.2	1.54445 ± 0.0012	1656 ± 3.5
308.15 K	1283.16 ± 3.2	1.54312 ± 0.0012	1646 ± 3.5
313.15 K	1279.72 ± 3.2	1.54186 ± 0.0012	1636.1 ± 3.5
318.15 K	1276.28 ± 3.2	1.54052 ± 0.0012	1626.7 ± 3.5
323.15 K	1272.84 ± 3.1	1.53928 ± 0.0012	1616.8 ± 3.5

CCCCCCCCn1cc[n+](C)c1.[Br-] [1-methyl-3-octylimidazolium bromide]
Liquid
Settings	mass density, [1] [kg/m3]	refractive index, [2]	speed of sound, [1] [m/s]
293.15 K	1179.3 ± 1.5	1.498 ± 0.0011	1481.8 ± 2.5
298.15 K	1175.69 ± 1.5	1.49656 ± 0.0011	1467.6 ± 2.5
303.15 K	1172.08 ± 1.5	1.49502 ± 0.0011	1454.3 ± 2.5
308.15 K	1168.54 ± 1.5	1.49347 ± 0.0011	1441.4 ± 2.5
313.15 K	1165.04 ± 1.5	1.49176 ± 0.0011	1428.8 ± 2.5
318.15 K	1161.52 ± 1.5	1.49008 ± 0.0011	1416.5 ± 2.5
323.15 K	1157.99 ± 1.5	1.48842 ± 0.0011	1404.4 ± 2.5

CCCCCCn1cc[n+](C)c1.[Br-] [3-hexyl-1-methyl-1H-imidazolium bromide]
Liquid
Settings	mass density, [1] [kg/m3]	refractive index, [2]	speed of sound, [1] [m/s]
293.15 K	1227.46 ± 1.4	1.51183 ± 0.0011	1609.1 ± 2.3
298.15 K	1223.74 ± 1.4	1.50982 ± 0.0011	1588.1 ± 2.3
303.15 K	1220.31 ± 1.4	1.50796 ± 0.0011	1570.4 ± 2.3
308.15 K	1216.69 ± 1.4	1.50612 ± 0.0011	1552.3 ± 2.3
313.15 K	1213.05 ± 1.4	1.50427 ± 0.0011	1534.4 ± 2.3
318.15 K	1209.41 ± 1.4	1.50232 ± 0.0011	1517.4 ± 2.3
323.15 K	1205.58 ± 1.4	1.50047 ± 0.0011	1500 ± 2.3
